According to patent EP0115714A1, “Pharmaceutical composition with psychotropic dopaminergic action” (priority 1983, dated 1984):

Legend:
[1] = test system: toxicité de groupe due à l'amphétamine; assay: Antagonism of amphetamine group toxicity (predictive of antipsychotic activity); format: in vivo, souris Charles River CD1; conditions: Mus musculus, ip; mice, compound i.p. 30 min before amphetamine 30 mg/kg i.p.; mortality over 24 h; confidence limits 10,1 - 26,7; read-out: DE50 (limites de confiance) d'antagonisme de la mortalité due à l'amphétamine
Source text: L'activité antipsychotique d'un composé représentatif, le monomaléate de 2-(1-pipérazinyl)pyrimidine, a été déterminée dans le test de l'antagonisme de la toxicité de groupe due à l'amphétamine (J.H. Burn et al., Arch. Int. Pharmacodyn. Ther. 1958, 113, 290).
Le moncmaléate de 2-(1-pipérazinyl)pyrimidine a été administré à des doses croissantes par voie intrapéritonéale à des lots de 10 souris Charles River CD1 pesant 20-22 g et groupées dans des cages de 22 cm de long, 12 cm de large et 12 cm de haute. Trente minutes après l'administration, on a injecté par voie intrapéritonéale de l'amphétamine à la dose de 30 mg/kg. La mortalité des animaux a été évaluée durant les 24 h qui ont suivi l'injection d'amphétamine et comparée, dans chaque groupe, à celle du groupe d'animaux témoins n'ayant reçu que le véhicule (sérum physiologique).
Le tableau I ci-dessous montre la dose efficace médiane (DE50) d'antagonisme de la mortalité due à l'amphétamine.

[2] = test system: catalepsie provoquée par la prochlorpérazine; assay: Antagonism of the onset of prochlorperazine-induced catalepsy (cork test; predictive of antidepressant activity); format: in vivo, rats mâles Wistar; conditions: rats, prochlorperazine 10 mg/kg s.c. 1 h later, read 5 h after
Source text: L'activité antidépressive des composés de l'invention a été évaluée dans le test de l'antagonisme vis-à-vis de l'installation de la catalepsie provoquée par la prochlorrérazine (K. Bizière et al., Arzneimittel Forschung, 1982, 32 (II), 824).
Un composé représentatif de l'invention, à savoir le monomaléate de 2-(1-pipérazinyl)pyrimidine, a été administré par voie intrapéritonéale à des groupes de 10 rats mâles Wistar pesant 220-240 g; des animaux de contrôle ont été en même temps traités par du sérum physiologique. Une heure après, les animaux ont reçu, par voie sous-cutanée, de la prochlorpérazine à une dose de […]. Cinq heures après cette administration, le nombre d'animaux cataleptiques a été estimé par le test du bouchon. Ce test consiste à positionner les animaux de telle sorte qu'ils puissent maintenir pendant au moins 20 seconds leurs pattes en appui sur une colonne formée de trois bouchons de liège superposés (hauteur totale 11 cm). Les performances réalisées pour chaque groupe d'animaux ont été comparées à celles du croupe d'animaux témoins n'ayant reçu que le véhicule et la prochlorpérazine.
Le tableau II ci-dessous montre le pourcentage d'antagonisme de l'installation de la catalepsie provoquée par la prochlorpérazine.

[3] = H.W. Stewart et al., J. Org. Chem. 1953, 18, 1478; cited from earlier work
activité antifilariale = conditions: H.W. Stewart et al., J. Org. Chem. 1953, 18, 1478; cited from earlier work

## c1cnc(N2CCNCC2)nc1 [2-(1-pipérazinyl)pyrimidine monomaléate, monomaléatede 2-(1-pipérazinyl)pyrimidine]
[1]
  ED50: 16.5 mg/kg
[2]; dose 0,1 mg/kg i.p.
  % d'antagonisme de l'installation de la catalepsie provoquée par la prochlorpérazine: 20%
[2]; dose 1 mg/kg i.p.
  % d'antagonisme de l'installation de la catalepsie provoquée par la prochlorpérazine: 80%

## c1cnc(N2CCNCC2)nc1 [2-(l-pipérazinyl)pyrimidine]
[3]
  activité analgésique: aucun n'a montré d'activité
activité antifilariale
  activité antifilariale: aucun n'a montré d'activité
